Test results reported in article PMC7719179, “Small molecule inhibition of Dynamin-dependent endocytosis targets multiple niche signals and impairs leukemia stem cells” (Nature Communications, 2020).
Several values for one entry are separate records, joined by “and”; a condition that tells them apart may be missing. Identical values can stand only once.

Tests used:
Ba/F3-SGM3R cells = experiment: Survival of cytokine-dependent Ba/F3-SGM3R cells, 48 h; format: cell-based, murine; settings: result in words
Source text: The coding sequence of murine Csf2ra (gm-csfr) and c-Kit was amplified by PCR from cDNA of bone marrow mononuclear cells of a healthy WT donor using primers mGmcsfr-FL-F and mGmcsfr-FL-R, and mKit-FL-F and mKit-FL-R, respectively (Table 3). The PCR product was cloned into the XhoI and EcoRI sites of pMIG-R1, which was kindly given by Pear et al.[82],[83]. Ba/F3 cells were infected with pMIG-R1/Gmcsfr retroviral supernatants produced in 293T cells, transduced cells were sorted with a BD Influx (BD Australia) and selected by culture in medium supplemented with 25 ng/mL rmGm-csf (#305-03, Pepro Tech, Rocky Hill NJ, USA) for 7 days. Finally, Ba/F3 cells stably expressing Gm-csfr were infected with pMIG-R1/Kit retroviral supernatants produced in 293T cells to generate Ba/F3-SMG3R cells, which were sorted with a BD Influx and maintained in medium supplemented with 5 ng/mL rmIL-3 (#213-13, Pepro Tech, Rocky Hill NJ, USA).
Supplementary Figure 8. […]
Basal levels of live cells were measured in BaF3-SGM3R cells cultured without cytokines (white bar). b, Levels of activated Stat5 (pStat5) in BaF3-SGM3 R cells stimulated with IL-3 (purple bars) and GM -CSF (yellow bars), and SCF-induced phospho-Erk (green bars), treated with increasing doses of Dynole 34-2 assessed by flow cytometry.

[1] = system: IL-7R and pStat5 in Lmo2^Tg DN3a cells; experiment: IL-7R internalization assay and pStat5 in Lmo2^Tg DN3a cells after IL-7; format: cell-based, mouse; settings: +IL-7, 0.2 μM Dynole 34-2
Procedure: Phosphoflow analysis was performed as previously described. Briefly, 2 × 10^6 cells stained for surface markers were subsequently resuspended into PBS 1× + 4% v/v paraformaldehyde and incubated for 10 min at 4 °C for fixation. Fixed cells were washed twice using PBS 1×, then resuspended in pre-chilled at −20 °C Perm Buffer III (BD Pharmingen) and incubated 30 min at 4 °C for permeabilization. Cells were washed twice using PBS 1× and incubated overnight at 4 °C in PBS 1× + 2% v/v fetal calf serum (FCS) with Cell Signalling purified antibodies (Genesearch Pty Ltd, Arundel QLD, Australia) against pSTAT5 (Tyr694; #9359), phospho-p38 MAPK (Thr180/Tyr182; #4511), phospho-p44/42 (Erk1/2; #9102), phospho-S6 (Ser235/236; #4856) and phospho-Akt (Ser473; #9271) or isotype control. […] Fluorescence-activated cell sorting (FACS) analysis was performed using LSRII and LSR Fortessa cytometers, following the gating strategies described in Supplementary Fig. 11. […]
For in vitro IL-7 stimulation assays, cells were starved in serum-free DMEM at 37 °C, then incubated with either vehicle or Dynole 34-2 or Ruxolitinib (INCB018424; #S1378, Selleckchem), or DAPT (GSI-IX; #S2215, Selleckchem) resuspended in DMSO for 1 h. […] The analysis was performed in triplicate and the mean fluorescence intensity (MFI) observed without stimulation was reported as 100%.

CCCCCCCCNC(=O)C(C#N)=Cc1cn(CCCN(C)C)c2ccccc12 [Dynole 34-2, 2-Cyano-N-octyl-3-(1-(3-dimethylaminopropyl)-1H-indol-3-yl)-acrylamide]
cell death of Ba/F3-SGM3R cells (Ba/F3-SGM3R cells): induced cell death in a dose-dependent manner | IL-7R (MFI) [1]: 14813 MFI and 16581 MFI and 16466 MFI | pStat5 (MFI) [1]: 2583 MFI and 1903 MFI and 3336 MFI and 3007 MFI
